Laboratory results: ChEMBL document CHEMBL2385059, “3-Hydroxyquinolin-2(1H)-ones As Inhibitors of Influenza A Endonuclease” (ACS Med Chem Lett, 2013)

Key:
[1] = Inhibition of H1N1 Influenza A endonuclease after 1 hr by fluorescence assay; set-up: species or system Influenza A virus
MDCK = experiment: Cytotoxicity against dog MDCK cells after 4 days by MTT assay; format: cell-based; conditions: Canis lupus familiaris, 96 h
HEK293 = experiment: Cytotoxicity against HEK293 cells after 4 days by MTT assay; format: cell-based; conditions: Homo sapiens, HEK293, 96 h

Structure (SMILES)	IC50 [1]	IC50 (MDCK)	IC50 (HEK293)
O=c1[nH]c2cc(-c3ccc(F)cc3)ccc2c(Br)c1O	1.1 µM		
O=c1[nH]c2cc(-c3ccc(F)cc3)ccc2cc1O	0.5 µM		
O=c1[nH]c2ccc(-c3ccc(F)cc3)cc2cc1O	0.5 µM		
Oc1nc2ccccc2c(Br)c1O	53 µM		
Cc1c(O)c(=O)[nH]c2ccccc12	> 100 µM		
Cc1c(O)c(=O)[nH]c2cc(-c3ccc(F)cc3)ccc12	13 µM		
O=c1[nH]c2cccc(-c3ccc(F)cc3)c2cc1O	3.3 µM		
O=c1[nH]c2c(-c3ccc(F)cc3)cccc2cc1O	4.7 µM		
O=c1[nH]c2ccccc2c(-c2ccccc2)c1O	> 20 µM		
O=c1[nH]c2ccc(Br)cc2cc1O	7.4 µM	> 10 µM	> 10 µM
O=c1[nH]c2ccccc2c(-c2ccc(F)cc2)c1O	11 µM		
O=c1[nH]c2c(Br)cccc2cc1O	11 µM	> 10 µM	> 10 µM
O=c1[nH]c2cc(Br)ccc2cc1O	7.6 µM	> 10 µM	> 10 µM
O=c1[nH]c2cccc(Br)c2cc1O	12 µM	> 10 µM	> 10 µM
O=c1[nH]c2cc(-c3ccc(F)cc3)ccc2c(-c2ccccc2)c1O	2 µM		
